In patent US20180251431A1 (VERTEX PHARMACEUTICALS INCORPORATED, priority 2016, published 2018):

Each molecule was assayed on HEK293 cells (assay: HEK293 VLCFA-LPC IC50 determination (13C-labeled C26:0 LPC by UHPLC/MS)). Settings: Homo sapiens, HEK293, 48 h, average of one or more replicates; 13C-labeled C26:0 LPC, 48 hours; read-out: Average HEK293 IC50.
Assay type: cell-based, human
Method in brief: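 Suspension HEK293 cells (final 0.5 million/mL after mixing with equal volume) incubated 48 hours with compound plus 13C-acetate (1.0 mg/mL in added media), shaking at 37° C. Lipids extracted with hexane/isopropanol or methanol, C13:0 LPC standard. UHPLC/MS of 13C-labeled C26:0 LPC (638.500/104.100 m/z); IC50 by four-parameter fit.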

Row | Structure (SMILES) | IC50
1 | COc1ncc(-n2ccc(NC(=O)C3(c4ccccc4F)CC3)n2)cn1 [Compound 338, 1-(2-fluorophenyl)-N-[1-(2-methoxylpyrimidin-5-yl)pyrazol-3-yl]cyclopropanecarboxamide] | > 5000 nM
2 | COc1cncc(F)c1-n1ccc(NC(=O)C2(c3ccccc3F)CC2)n1 [Compound 345, N-[1-(3-fluoro-5-methoxy-4-pyridyl)pyrazol-3-yl]-1-(2-fluorophenyl)cyclopropanecarboxamide] | > 2000 nM

Same assay, conditions: Homo sapiens, HEK293, HEK293 cells; average of one or more replicates; read-out: Average HEK293 IC50

Row | Structure (SMILES) | IC50
3 | O=C(Cc1ccccc1)Nc1ccn(-c2ccncn2)n1 [Compound 209, 2-phenyl-N-(1-pyrimidin-4-ylpyrazol-3-yl)acetamide] | 2300 nM
4 | O=C(Nc1ccn(-c2ccnc(F)c2)n1)[C@]1(c2ccccc2)CC12CCCC2 [Compound 164, (2R)-N-[1-(2-fluoro-4-pyridyl)pyrazol-3-yl]-2-phenyl-spiro[2.4]heptane-2-carboxamide] | > 5000 nM
5 | COc1ccc(CC(=O)Nc2ccn(-c3ccccc3)n2)cc1C [Compound 62, 2-(4-methoxy-3-methyl-phenyl)-N-(1-phenylpyrazol-3-yl)acetamide] | 3700 nM
6 | Nc1ncc(-n2ccc(NC(=O)C3(c4ccccc4F)CC3)n2)cc1F [Compound 399, N-[1-(6-amino-5-fluoro-3-pyridyl)pyrazol-3-yl]-1-(2-fluorophenyl)cyclopropanecarboxamide] | 280 nM
7 | Cc1ccccc1CC(=O)Nc1ccn(-c2ccccc2)n1 [Compound 44, 2-(o-tolyl)-N-(1-phenylpyrazol-3-yl)acetamide] | 240 nM
8 | O=C(Nc1ccn(-c2cncnc2)n1)C1(c2ccccc2)CC1 [Compound 98, 1-phenyl-N-(1-pyrimidin-5-ylpyrazol-3-yl)cyclopropanecarboxamide] | 110 nM
9 | O=C(Nc1ccn(-c2ccnc(F)c2)n1)C1(c2c(F)cccc2Cl)CC1 [Compound 274, 1-(2-chloro-6-fluorophenyl)-N-(1-(2-fluoropyridin-4-yl)-1H-pyrazol-3-yl)cyclopropane-1-carboxamide] | 37 nM
10 | O=C(Nc1ccn(-c2ccccc2)n1)C(c1ccccc1)C1CCCC1 (centres unmarked) [Compound 167, 2-cyclopentyl-2-phenyl-N-(1-phenylpyrazol-3-yl)acetamide] | > 5000 nM

Same assay, conditions: average of one or more replicates; 13C-labeled C26:0 LPC, 48 hours; read-out: Average HEK293 IC50

Row | Structure (SMILES) | IC50
11 | O=C(Nc1ccn(-c2ccncc2)n1)C1(c2ccccc2)CC1(F)F (single isomer, unassigned) [Compound 434] | 340 nM
